Molecular target: human sphingosine-1-phosphate receptor 1 (S1P1) (Homo sapiens, UniProt P21453)
Test: Inhibition of cAMP production (HTRF cAMP HiRange), S1P1 CHO-K1 cells
Format: cell-based
Details: inhibition of cAMP production, S1P1; read-out: hS1P1 CAMP pEC50 (converted)
How it was run: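 Intracellular cAMP changes read by TR-FRET (HTRF HiRange, 1 h room temperature) after 30 min compound exposure at 37 °C. Cells: overnight-plated CHO-K1 stably expressing tagged human S1P1 with EA-β-arrestin2. Responses normalized to fingolimod.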

Sequence of human sphingosine-1-phosphate receptor 1 (S1P1) (P21453 whole entry): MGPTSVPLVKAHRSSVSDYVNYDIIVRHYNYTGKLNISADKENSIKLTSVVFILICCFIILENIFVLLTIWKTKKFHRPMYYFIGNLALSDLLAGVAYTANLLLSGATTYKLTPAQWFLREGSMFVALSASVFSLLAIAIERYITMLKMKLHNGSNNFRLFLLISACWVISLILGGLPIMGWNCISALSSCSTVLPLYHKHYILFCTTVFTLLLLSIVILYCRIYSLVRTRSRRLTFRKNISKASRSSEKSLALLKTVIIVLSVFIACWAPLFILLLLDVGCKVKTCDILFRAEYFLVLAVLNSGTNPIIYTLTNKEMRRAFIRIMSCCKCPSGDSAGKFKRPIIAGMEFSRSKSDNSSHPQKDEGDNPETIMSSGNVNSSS

Row | EC50 [nM] | Compound
1 | > 316 | COc1cccc(-c2coc(-c3ccc4c(c3)nnn4C(C)C)n2)c1 [Compound 385, 5-[4-(3-methoxyphenyl)-1,3-oxazol-2-yl]-1-(propan-2-yl)-H-1,2,3-benzotriazole]
2 | > 316 | CC(C)n1ccc2cc(-c3nc(-c4ccccc4F)cs3)ccc21 [Compound 403, 4-(2-fluorophenyl)-2-(1-isopropylindol-5-yl)thiazole]
3 | < 316 | Cc1cccc2oc(-c3ccc4c(c3)nnn4C(C)C)nc12 [Compound 418, 2-(1-isopropyl-1H-benzo[d][1,2,3]triazol-5-yl)-4-methyl-benzo[d]oxazole]
4 | < 316 | Cc1ccc2oc(-c3ccc4c(c3)nnn4C(C)C)nc2c1 [Compound 419, 2-(1-isopropyl-1H-benzo[d][1,2,3]triazol-5-yl)-5-methyl-benzo[d]oxazole]
5 | < 316 | Cc1ccc2nc(-c3ccc4c(c3)nnn4C(C)C)oc2c1 [Compound 420, 2-(1-isopropyl-1H-benzo[d][1,2,3]triazol-5-yl)-6-methyl-benzo[d]oxazole]
6 | > 316 | Cc1cccc2nc(-c3ccc4c(c3)nnn4C(C)C)oc12 [Compound 421, 2-(1-isopropyl-1H-benzo[d][1,2,3]triazol-5-yl)-7-methyl-benzo[d]oxazole]
7 | < 316 | COc1cccc2oc(-c3ccc4c(c3)nnn4C(C)C)nc12 [Compound 424, 2-(1-isopropyl-1H-benzo[d][1,2,3]triazol-5-yl)-4-methoxy-benzo[d]oxazole]
8 | < 316 | COc1ccc2nc(-c3ccc4c(c3)nnn4C(C)C)oc2c1 [Compound 426, 2-(1-isopropyl-1H-benzo[d][1,2,3]triazol-5-yl)-6-methoxy-benzo[d]oxazole]
9 | > 316 | CC(C)n1nnc2cc(-c3nc4c(Cl)cccc4o3)ccc21 [Compound 427, 4-chloro-2-(1-isopropyl-1H-benzo[d][1,2,3]triazol-5-yl)benzo[d]oxazole]
10 | > 316 | CC(C)n1nnc2cc(-c3nc4c(Br)cccc4o3)ccc21 [Compound 428, 4-bromo-2-(1-isopropylbenzotriazol-5-yl)-1,3-benzoxazole]
11 | < 316 | CC(C)n1nnc2cc(-c3nc(-c4ccccc4C(F)(F)F)co3)ccc21 [Compound 432, 1-(propan-2-yl)-5-{4-[2-(trifluoromethyl)phenyl]-1,3-oxazol-2-yl}-1H-1,2,3-benzotriazole]
12 | < 316 | Cc1ccccc1-c1coc(-c2ccc3c(c2)nnn3C(C)C)n1 [Compound 433, 5-[4-(2-methylphenyl)-1,3-oxazol-2-yl]-1-(propan-2-yl)-1H-1,2,3-benzotriazole]

Same assay, conditions: inhibition of cAMP production; potency; read-out: hS1P1 CAMP pEC50 (converted)

Row | EC50 [nM] | Compound
13 | < 316 | CC(C)n1ccc2cc(-c3nc(-c4ccccc4Br)no3)ccc21 [Compound 322, 3-(2-bromophenyl)-5-(1-isopropyl-1H-indol-5-yl)-1,2,4-oxadiazole]
14 | > 316 | CC(C)n1ccc2cc(-c3nc(-c4ccccc4O)no3)ccc21 [Compound 323, 2-(5-(1-isopropyl-1H-indol-5-yl)-1,2,4-oxadiazol-3-yl)phenol]
15 | > 316 | CC(C)Oc1ccccc1-c1noc(-c2ccc3c(ccn3C(C)C)c2)n1 [Compound 324, 3-(2-isopropoxyphenyl)-5-(1-isopropyl-1H-indol-5-yl)-1,2,4-oxadiazole]
16 | > 316 | COc1cccc(OC)c1-c1noc(-c2ccc3c(ccn3C(C)C)c2)n1 [Compound 325, 3-(2,6-dimethoxy-phenyl)-5-(1-isopropyl-indol-5-yl)-1,2,4-oxadiazole]
17 | > 316 | CC(C)n1ccc2cc(-c3nc(-c4cccc5c4OCO5)no3)ccc21 [Compound 326, 3-(benzo[d][1,3]dioxol-4-yl)-5-(1-isopropyl-1H-indol-5-yl)-1,2,4-oxadiazole]
18 | < 316 | Cc1ccccc1-c1noc(-c2ccc3c(cnn3C(C)C)c2)n1 [Compound 329, 5-(1-isopropyl-1H-indazol-5-yl)-3-(o-tolyl)-1,2,4-oxadiazole]
19 | < 316 | CC(C)n1ncc2cc(-c3nc(-c4ccccc4Cl)no3)ccc21 [Compound 330, 3-(2-chlorophenyl)-5-(1-isopropyl-1H-indazol-5-yl)-1,2,4-oxadiazole]
20 | < 316 | CC(C)n1ncc2cc(-c3nc(-c4ccccc4OC(F)(F)F)no3)ccc21 [Compound 331, 5-(1-isopropyl-1H-indazol-5-yl)-3-(2-(trifluoro-methoxy)phenyl)-1,2,4-oxadiazole]
21 | < 316 | CC(C)n1ncc2cc(-c3nc(-c4ccccc4Br)no3)ccc21 [Compound 332, 3-(2-bromophenyl)-5-(1-isopropyl-1H-indazol-5-yl)-1,2,4-oxadiazole]
22 | < 316 | CC(C)n1ncc2cc(-c3nc(-c4ccccc4O)no3)ccc21 [Compound 333, 2-(5-(1-isopropyl-1H-indazol-5-yl)-1,2,4-oxadiazol-3-yl)phenol]
23 | > 316 | CC(C)Oc1ccccc1-c1noc(-c2ccc3c(cnn3C(C)C)c2)n1 [Compound 334, 3-(2-isopropoxy-phenyl)-5-(1-isopropyl-1H-indazol-5-yl)-1,2,4-oxadiazole]
24 | > 316 | COc1cccc(OC)c1-c1noc(-c2ccc3c(cnn3C(C)C)c2)n1 [Compound 335, 3-(2,6-dimethoxy-phenyl)-5-(1-isopropylindazol-5-yl)-1,2,4-oxadiazole]
25 | < 316 | CC(C)n1ncc2cc(-c3nc(-c4cccc5c4OCO5)no3)ccc21 [Compound 336, 3-(benzo[d][1,3]dioxol-4-yl)-5-(1-isopropyl-1H-indazol-5-yl)-1,2,4-oxadiazole]
26 | < 316 | CC(C)n1ncc2cc(-c3nc(-c4cccc5c4OCCC5)no3)ccc21 [Compound 337, 3-chroman-8-yl-5-(1-isopropylindazol-5-yl)-1,2,4-oxadiazole]
27 | > 316 | COc1cccc(F)c1-c1noc(-c2ccc3c(cnn3C(C)C)c2)n1 [Compound 338, 3-(2-fluoro-6-methoxy-phenyl)-5-(1-isopropyl-indazol-5-yl)-1,2,4-oxadiazole]
28 | > 316 | COC(=O)NS(=O)(=O)n1c(=O)oc2cc(-c3nnc(-c4ccccc4OC)o3)ccc21 [Compound 342, methyl N-({6-[5-(2-methoxyphenyl)-1,3,4-oxadiazol-2-yl]-2-oxo-2,3-dihydro-1,3-benzoxazol-3-yl}sulfonyl)carbamate]
29 | < 316 | N#Cc1cc(-c2nc(-c3ccc4c(c3)CCC(=O)N4)no2)ccc1NCCF [Compound 343, 2-[(2-fluoroethyl)amino]-5-[3-(2-oxo-1,2,3,4-tetrahydroquinolin-6-yl)-1,2,4-oxadiazol-5-yl]benzonitrile]
30 | < 316 | N#Cc1cc(-c2nc(-c3ccc4c(c3)CCC(=O)N4)no2)ccc1NCC(F)F [Compound 344, 2-[(2,2-difluoroethyl)amino]-5-[3-(2-oxo-1,2,3,4-tetrahydroquinolin-6-yl)-1,2,4-oxadiazol-5-yl]benzonitrile]
31 | > 316 | N#Cc1cc(-c2nc(-c3ccc4c(c3)CCC(=O)N4)no2)ccc1N [Compound 345, 2-amino-5-[3-(2-oxo-1,2,3,4-tetrahydro-quinolin-6-yl)-1,2,4-oxadiazol-5-yl]benzonitrile]
32 | < 316 | C=C(F)CNc1ccc(-c2nc(-c3ccc4c(c3)CCC(=O)N4)no2)cc1C#N [Compound 346, 2-[(2-fluoroprop-2-en-1-yl)amino]-5-[3-(2-oxo-1,2,3,4-tetrahydro-quinolin-6-yl)-1,2,4-oxadiazol-5-yl]benzonilrile]
33 | < 316 | CC(F)(F)CNc1ccc(-c2nc(-c3ccc4c(c3)CCC(=O)N4)no2)cc1C#N [Compound 347, 2-[(2,2-difluoropropyl)amino]-5-[3-(2-oxo-1,2,3,4-tetrahydro-quinolin-6-yl)-1,2,4-oxadiazol-5-yl]benzonitrile]
34 | < 316 | CC(F)CNc1ccc(-c2nc(-c3ccc4c(c3)CCC(=O)N4)no2)cc1C#N (stereo not shown) [Compound 348, 2-[(2-fluoropropyl)amino]-5-[3-(2-oxo-1,2,3,4-tetrahydroquinolin-6-yl)-1,2,4-oxadiazol-5-yl]benzonitrile]
35 | < 316 | COc1ccccc1-c1nnc(-c2ccc3[nH]c(=O)oc3c2)o1 [Compound 349, 6-[5-(2-methoxyphenyl)-1,3,4-oxadiazol-2-yl]-2,3-dihydro-1,3-benzoxazol-2-one]
36 | < 316 | CC(C)Nc1ccc(-c2nnc(-c3ccc4[nH]ncc4c3)o2)cc1C#N [Compound 351, 5-[5-(1H-indazol-5-yl)-1,3,4-oxadiazol-2-yl]-2-[(propan-2-yl)amino]benzonitrile]
37 | < 316 | N#Cc1cc(-c2nnc(-c3ccc4[nH]ncc4c3)o2)ccc1NCC1CC1 [Compound 352]
38 | < 316 | N#Cc1cc(-c2nnc(-c3ccc4[nH]ncc4c3)o2)ccc1NCCF [Compound 353, 2-[(2-fluoroethyl)amino]-5-[5-(1H-indazol-5-yl)-1,3,4-oxadiazol-2-yl]benzonitrile]
39 | < 316 | N#Cc1cc(-c2nnc(-c3ccc4[nH]ncc4c3)o2)ccc1NCC(F)F [Compound 354, 2-[(2,2-difluoro-ethyl)amino]-5-[5-(1H-indazol-5-yl)-l,3,4-oxadiazol-2-yl]benzonitrile]
40 | < 316 | N#Cc1cc(-c2nnc(-c3ccc4[nH]cnc4c3)o2)ccc1NCC1CC1 [Compound 357, 5-[5-(1H-1,3-benzo-diazol-5-yl)-1,3,4-oxadiazol-2-yl]-2-[(cyclopropylmethyl)amino]benzonitrile]
41 | < 316 | N#Cc1cc(-c2nnc(-c3ccc4[nH]cnc4c3)o2)ccc1NCCF [Compound 358, 5-[5-(1H-1,3-benzo-diazol-5-yl)-1,3,4-oxadiazol-2-yl]-2-[(2-fluoroethyl)amino] benzonitrile]
42 | < 316 | N#Cc1cc(-c2nnc(-c3ccc4[nH]cnc4c3)o2)ccc1NCC(F)F [Compound 359, 5-[5-(1H-1,3-benzo-diazol-5-yl)-1,3,4-oxadiazol-2-yl]-2-[(2,2-difluoroethyl)amino] benzonitrile]

Row | Compound | EC50 [nM]
43 | COc1ccccc1-c1nnc(-c2ccc3c(c2)oc(=O)n3C)o1 [Compound 350, 6-[5-(2-methoxyphenyl)-1,3,4-oxadiazol-2-yl]-3-methyl-2,3-dihydro-1,3-benzoxazol-2-one] | > 316
